Test results taken from ChEMBL document CHEMBL1201862, “PubChem BioAssay data set” (2004).
Active and inactive are the calls of the source. Where a SMILES comes first, the peptide text is derived from it. Square brackets hold non-standard residues; d marks the D form. Peptide text beside a SMILES is read from it.

How the values were obtained:
Cytochrome P450 3A4 = Cytochrome P450 3A4 (Homo sapiens, UniProt P08684); conditions: Potency;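 also: confirmatory qHTS run detecting inhibitors and substrates of CYP3A4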
[1] = DRD fibroblast viability loss – cell-based, non-viral oncogenic, luminescence, dose response (AID 1934); format: functional; conditions: Homo sapiens
BJ [2] = assay: BJ-TERT-LT-ST fibroblast viability loss – cell-based, RAS-independent, luminescence, dose response (AID 1935); format: functional; conditions: Homo sapiens;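 also: BJ fibroblasts immortalized with TERT plus LT and ST oncogenes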
BJ [3] = assay: cells; format: functional, cell-based; conditions: Homo sapiens
BJ [4] = assay: BJ-TERT fibroblast viability loss – cell-based, RAS-independent, luminescence, dose response (AID 1933); format: functional; conditions: Homo sapiens
Genome polyprotein = Genome polyprotein (dengue virus type 2, UniProt P29990); assay: flavivirus cap methylation enzyme inhibition – biochemical, confirmation dose response, primary screen (AID 588689); format: functional
[5] = molecular target: T1, Carboxy-terminal domain RNA polymerase II polypeptide A small phosphatase 1 (Homo sapiens, UniProt Q9GZU7); assay: CTDSP1 inhibitors, concentration-response, biochemical, absorbance readout, ultra-high-throughput screen actives (AID 540297); format: functional
T1 sequence (Q9GZU7 whole entry): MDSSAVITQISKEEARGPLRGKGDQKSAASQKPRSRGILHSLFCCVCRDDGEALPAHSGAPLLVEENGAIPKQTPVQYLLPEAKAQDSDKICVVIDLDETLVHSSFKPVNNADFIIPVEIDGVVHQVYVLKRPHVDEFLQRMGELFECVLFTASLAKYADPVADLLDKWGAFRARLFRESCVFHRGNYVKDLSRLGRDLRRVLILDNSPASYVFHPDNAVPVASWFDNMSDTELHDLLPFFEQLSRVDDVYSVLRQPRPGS

[6] = molecular target: Induced myeloid leukemia cell differentiation protein Mcl-1 (Homo sapiens, UniProt Q07820); format: functional
Leucine aminopeptidase = molecular target: T2, Leucine aminopeptidase (Plasmodium falciparum 3D7, UniProt Q8IL11); assay: P. falciparum M17LAP inhibitors, primary screen, biochemical, fluorogenic H-Leu-NHMec substrate, 1536-well (AID 1619); format: functional
T2 sequence (Q8IL11 whole entry): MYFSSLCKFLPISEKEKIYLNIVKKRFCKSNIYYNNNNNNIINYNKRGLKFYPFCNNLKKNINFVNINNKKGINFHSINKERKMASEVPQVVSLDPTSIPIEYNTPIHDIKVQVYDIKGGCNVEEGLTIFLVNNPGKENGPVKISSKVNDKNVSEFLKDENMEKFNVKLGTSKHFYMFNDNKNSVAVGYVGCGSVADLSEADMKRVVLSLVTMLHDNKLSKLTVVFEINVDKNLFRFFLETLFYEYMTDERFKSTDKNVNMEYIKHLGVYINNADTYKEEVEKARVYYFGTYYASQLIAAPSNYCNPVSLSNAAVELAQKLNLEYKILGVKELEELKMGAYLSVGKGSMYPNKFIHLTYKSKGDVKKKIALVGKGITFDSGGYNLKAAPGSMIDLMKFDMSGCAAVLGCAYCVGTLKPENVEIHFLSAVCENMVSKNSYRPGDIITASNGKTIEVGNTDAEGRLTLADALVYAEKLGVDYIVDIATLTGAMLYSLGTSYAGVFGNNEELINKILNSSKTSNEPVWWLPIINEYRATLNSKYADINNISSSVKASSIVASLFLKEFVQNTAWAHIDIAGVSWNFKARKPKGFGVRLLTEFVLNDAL

[7] = blockade of melanocortin 4 receptor signaling – cell-based, plate reader, cherry pick, counter-screen for LGR2 antagonist project, dose response (AID 743444); format: functional;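 also: transfected HEK 293 cells stimulated with alpha-MSH peptide; potency of inhibitors of the alpha-MSH evoked signal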
[8] = A549 cell cytotoxicity, dose response, cytotoxicity control, plate reader, cherry-pick, antagonist series (AID 743412); format: functional, cell-based
[9] = blockers of bursicon-stimulated LGR2 cAMP reporter – cell-based, HEK293, CRE-luciferase reporter, cherry pick, set 2, dose response (AID 743343); format: functional;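 also: transfected cells were stimulated with diluted bursicon conditioned medium after compound addition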
[10] = toxicity toward HepG2 liver cells – cell-based, plate reader, cherry-pick, antagonist series, cytotoxicity control, dose response (AID 743416); format: functional
P388/ADR = assay: cells; format: functional; conditions: Mus musculus
P388 = assay: cells; format: functional; conditions: Mus musculus
SN12K1 = assay: cells; format: functional; conditions: Homo sapiens
[11] = intracellular Trypanosoma cruzi inhibitors in host cells – cell-based, plate reader, cherry-pick samples, set 3, dose response (AID 651818); format: functional;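 also: compounds incubated with infected cells for about four days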
Large T antigen = Large T antigen (Simian virus 40, UniProt P03070); format: functional, Betapolyomavirus macacae;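 also: Confirmatory-stage PubChem screen for compounds that inhibit SV40 T antigen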
[12] = blockers of HIV-1 envelope-mediated cell-cell fusion – cherry-pick, dose response (AID 652057); format: functional, cell-based
[13] = HIV-1 AD8 envelope cell-cell fusion blockers – cherry-pick, dose response (AID 652062); format: functional, cell-based;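 also: luciferase signal from cell-cell fusion driven by HIV-1 clade B AD8 Env; potency is for inhibitors of fusion seen as a drop in luminescence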
[14] = blockers of HIV-1 ZM109 envelope-driven cell-cell fusion – HeLa effector, CEM target cells, luciferase, cherry-pick, dose response (AID 652058); format: functional, cell-based;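 also: luciferase signal from HIV-1 Env mediated cell-cell fusion of effector and target cells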
[15] = molecular target: T3, Rac GTPase-activating protein 1 (Homo sapiens, UniProt Q9H0H5); assay: blockers of MgcRacGAP-driven Rac1 GTP hydrolysis – biochemical, ADP Hunter fluorescence, primary and confirmatory, confirmation (AID 624330); format: functional
T3 sequence (Q9H0H5 whole entry): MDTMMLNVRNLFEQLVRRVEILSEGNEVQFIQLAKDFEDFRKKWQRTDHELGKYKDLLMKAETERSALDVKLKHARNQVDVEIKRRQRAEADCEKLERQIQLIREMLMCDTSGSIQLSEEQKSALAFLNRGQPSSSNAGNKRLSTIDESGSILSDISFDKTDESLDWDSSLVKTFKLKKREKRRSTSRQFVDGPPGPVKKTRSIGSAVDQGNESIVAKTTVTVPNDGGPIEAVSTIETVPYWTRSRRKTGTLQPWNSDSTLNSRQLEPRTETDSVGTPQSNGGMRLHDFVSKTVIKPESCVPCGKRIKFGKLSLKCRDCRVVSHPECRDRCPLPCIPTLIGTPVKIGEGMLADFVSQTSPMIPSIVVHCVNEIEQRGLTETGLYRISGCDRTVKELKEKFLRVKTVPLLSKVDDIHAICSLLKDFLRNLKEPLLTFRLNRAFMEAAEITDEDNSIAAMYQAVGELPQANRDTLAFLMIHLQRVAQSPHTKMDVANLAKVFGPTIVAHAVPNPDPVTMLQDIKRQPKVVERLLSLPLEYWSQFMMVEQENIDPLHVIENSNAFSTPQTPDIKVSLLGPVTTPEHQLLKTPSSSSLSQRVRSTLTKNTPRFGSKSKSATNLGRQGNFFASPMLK

Sequence of Cytochrome P450 3A4 (P08684 whole entry): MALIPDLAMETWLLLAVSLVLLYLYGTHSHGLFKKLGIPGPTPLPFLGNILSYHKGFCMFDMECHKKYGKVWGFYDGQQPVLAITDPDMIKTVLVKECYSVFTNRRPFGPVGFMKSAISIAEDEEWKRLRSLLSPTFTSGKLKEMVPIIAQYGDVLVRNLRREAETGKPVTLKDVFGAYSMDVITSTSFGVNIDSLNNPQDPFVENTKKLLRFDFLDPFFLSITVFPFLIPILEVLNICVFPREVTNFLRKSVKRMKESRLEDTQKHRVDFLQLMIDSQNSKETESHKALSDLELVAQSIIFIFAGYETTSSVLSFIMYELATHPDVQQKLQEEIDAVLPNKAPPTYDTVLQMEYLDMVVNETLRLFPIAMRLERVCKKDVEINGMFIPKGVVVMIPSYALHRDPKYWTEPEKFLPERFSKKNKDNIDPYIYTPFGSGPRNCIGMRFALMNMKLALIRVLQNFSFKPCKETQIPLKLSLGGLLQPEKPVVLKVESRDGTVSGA
Sequence of Large T antigen (P03070 whole entry, the tested form may be a part): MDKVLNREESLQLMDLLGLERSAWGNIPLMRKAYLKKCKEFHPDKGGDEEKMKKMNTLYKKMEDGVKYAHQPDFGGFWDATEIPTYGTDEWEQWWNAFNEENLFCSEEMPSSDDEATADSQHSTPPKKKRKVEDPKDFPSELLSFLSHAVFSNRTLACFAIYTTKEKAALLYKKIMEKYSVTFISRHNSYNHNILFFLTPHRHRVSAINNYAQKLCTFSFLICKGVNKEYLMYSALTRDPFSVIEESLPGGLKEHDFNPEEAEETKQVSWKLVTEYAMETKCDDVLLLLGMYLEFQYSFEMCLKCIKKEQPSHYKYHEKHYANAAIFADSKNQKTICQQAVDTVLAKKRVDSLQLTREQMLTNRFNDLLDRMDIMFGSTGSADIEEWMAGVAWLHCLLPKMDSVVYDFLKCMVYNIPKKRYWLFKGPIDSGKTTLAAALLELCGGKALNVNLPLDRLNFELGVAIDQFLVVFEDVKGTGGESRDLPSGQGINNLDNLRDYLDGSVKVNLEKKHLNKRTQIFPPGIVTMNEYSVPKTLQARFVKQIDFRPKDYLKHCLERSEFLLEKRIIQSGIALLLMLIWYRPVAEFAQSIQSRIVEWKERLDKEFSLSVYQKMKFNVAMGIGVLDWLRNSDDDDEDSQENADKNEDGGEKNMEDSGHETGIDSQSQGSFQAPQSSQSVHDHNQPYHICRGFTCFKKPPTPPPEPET
Sequence of Induced myeloid leukemia cell differentiation protein Mcl-1 (Q07820 whole entry): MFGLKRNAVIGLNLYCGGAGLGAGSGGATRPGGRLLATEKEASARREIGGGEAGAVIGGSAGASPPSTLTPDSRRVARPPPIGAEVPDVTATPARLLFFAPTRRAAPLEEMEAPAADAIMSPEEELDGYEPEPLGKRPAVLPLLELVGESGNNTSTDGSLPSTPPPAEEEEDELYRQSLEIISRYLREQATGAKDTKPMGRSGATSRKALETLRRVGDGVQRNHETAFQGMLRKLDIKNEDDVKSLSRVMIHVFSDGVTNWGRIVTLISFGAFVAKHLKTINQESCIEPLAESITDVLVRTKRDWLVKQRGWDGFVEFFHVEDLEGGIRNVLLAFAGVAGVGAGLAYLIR
Sequence of Genome polyprotein (P29990 2492-3391 limits assumed): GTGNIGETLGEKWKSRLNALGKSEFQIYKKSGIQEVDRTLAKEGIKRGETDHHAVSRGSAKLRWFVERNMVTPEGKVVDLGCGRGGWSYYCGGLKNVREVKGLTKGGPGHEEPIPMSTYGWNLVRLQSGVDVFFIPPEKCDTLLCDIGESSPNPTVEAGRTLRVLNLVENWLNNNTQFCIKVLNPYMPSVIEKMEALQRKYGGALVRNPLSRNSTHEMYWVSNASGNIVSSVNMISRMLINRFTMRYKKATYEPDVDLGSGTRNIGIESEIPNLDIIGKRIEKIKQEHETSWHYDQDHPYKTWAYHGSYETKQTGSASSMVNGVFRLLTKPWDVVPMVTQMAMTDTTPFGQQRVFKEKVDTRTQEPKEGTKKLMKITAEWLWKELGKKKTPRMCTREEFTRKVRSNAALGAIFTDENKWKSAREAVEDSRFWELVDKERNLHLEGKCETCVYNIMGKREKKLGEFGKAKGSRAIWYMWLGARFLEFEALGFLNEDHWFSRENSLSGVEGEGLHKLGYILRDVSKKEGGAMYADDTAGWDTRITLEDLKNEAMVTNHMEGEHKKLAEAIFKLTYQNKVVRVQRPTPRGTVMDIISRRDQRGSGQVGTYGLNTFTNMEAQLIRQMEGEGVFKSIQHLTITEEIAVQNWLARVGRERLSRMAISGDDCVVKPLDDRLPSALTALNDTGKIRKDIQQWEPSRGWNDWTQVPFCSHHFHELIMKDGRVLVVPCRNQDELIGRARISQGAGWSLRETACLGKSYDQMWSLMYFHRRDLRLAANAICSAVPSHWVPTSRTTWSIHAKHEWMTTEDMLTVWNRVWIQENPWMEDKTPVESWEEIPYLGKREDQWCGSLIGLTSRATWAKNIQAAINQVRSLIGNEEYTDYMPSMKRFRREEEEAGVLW

CC1(C)C(O)CC(=O)[C@]2(C)C1CC(=O)[C@]1(C)C2CC[C@@]2(C)C(c3ccoc3)OC(=O)C3O[C@@]321 (some centres not stated)
AC50 (Cytochrome P450 3A4): 10 µM (inconclusive)

Cc1ccc(Nc2nc(-c3cccnc3)nc3ccccc23)cc1
EC50 [1]: 15.8 µM (active) | EC50 (BJ [2]): > 150 µM (inconclusive) | EC50 (BJ [3]): 20.3 µM (active) | EC50 (BJ [4]): 28.5 µM (active)

CCCCNC(=O)c1ccc2nc(-c3ccco3)c(-c3ccco3)nc2c1
IC50 (Genome polyprotein): 80.4 µM (active) | IC50 [5]: 3.77 µM (active) | IC50 [6]: 6.65 µM (active)

CCCn1c(C)nc2c(NCCN3CCOCC3)nc(C)nc21
AC50 (Cytochrome P450 3A4): 20 µM (inconclusive)

CC1(C)OC2CC3C4CC(F)C5=CC(=O)C=CC5(C)C4C(O)CC3(C)[C@]2(C(=O)CO)O1 (some centres not stated)
AC50 (Cytochrome P450 3A4): 39.8 µM (inconclusive)

CCC(=O)OC1CCC2C3CCc4cc(O)ccc4C3CC[C@]12C (some centres not stated)
AC50 (Cytochrome P450 3A4): 39.8 µM (inconclusive)

CCSc1nnc(NC(=O)C2(C)Cc3ccccc3C(=O)O2)s1 (configuration not stated)
IC50 (Leucine aminopeptidase): 33.6 µM (active)

COC(=O)/C(=C1\OC(=O)C(c2ccccc2)C1=O)c1ccccc1 (configuration not stated)
AC50 (Cytochrome P450 3A4): 39.8 µM (inconclusive)

CCOC(=O)c1ccc(NC(=O)CN2C(=O)CSCC2=O)cc1
IC50 (Leucine aminopeptidase): 41.8 µM (active)

Cc1ccc2cc(CN(Cc3ccco3)C(=O)c3cccs3)c(O)nc2c1
EC50 [1]: 4.87 µM (active) | EC50 (BJ [2]): 5.07 µM (active) | EC50 (BJ [3]): 74.4 µM (active) | EC50 (BJ [4]): 13 µM (active)

COc1ccc(-c2cc3nc(NCC4CCCCC4)n(C)c(=O)c3s2)cc1OC
AC50 [7]: 2.51 µM (active) | AC50 [8]: 45.8 µM (active) | AC50 [9]: 12.8 µM (active) | AC50 [10]: > 52 µM (inactive)

CCS(=O)(=O)Nc1ccc(Nc2c3ccccc3nc3ccccc23)c(OC)c1
GI50 (P388/ADR): 0.0955 µM (active) | GI50 (P388): < 0.01 µM (active) | GI50 (SN12K1): 0.51 µM (active)

Cc1cc(/N=N/c2ccc(/N=N/c3c(O)c(S(=O)(=O)O)cc4cc(S(=O)(=O)O)ccc34)cc2C)ccc1/N=N/c1ccc2cc(S(=O)(=O)O)cc(S(=O)(=O)O)c2c1
GI50 (P388/ADR): 26.5 µM (inactive) | GI50 (P388): 42.8 µM (inactive) | GI50 (SN12K1): > 100 µM (inactive)

O=C(CCN1CCOCC1)C(=Cc1ccccc1)C(=O)CCN1CCOCC1
GI50 (P388/ADR): 0.255 µM (active) | GI50 (P388): 0.392 µM (active) | GI50 (SN12K1): 2.32 µM (inactive)

ClCCN(CC#CCCCC#CCN(CCCl)CCCl)CCCl
GI50 (P388/ADR): 2.44 µM (inactive) | GI50 (P388): 0.736 µM (active) | GI50 (SN12K1): 10 µM (inactive)

O=C(NC/C=C/CO)c1ccccc1
GI50 (P388/ADR): > 100 µM (inactive) | GI50 (P388): > 100 µM (inactive) | GI50 (SN12K1): > 100 µM (inactive)

COc1ccc(NC(=O)Nc2ccc3c(c2)CC(=O)N([C@@H](C)CO)C[C@@H](C)[C@@H](CN(C)Cc2ccc(C(F)(F)F)cc2)O3)cc1
AC50 [11]: 4.62 µM (active)

Cc1ccc(S(=O)(=O)N(C)C[C@H]2Oc3c(NC(=O)Nc4ccc5c(c4)OCO5)cccc3C(=O)N([C@H](C)CO)C[C@@H]2C)cc1
AC50 [11]: 6.64 µM (active)

C[C@H]1CN([C@@H](C)CO)C(=O)c2cccc(NC(=O)CCCCCC(=O)Nc3ccccc3N)c2O[C@@H]1CN(C)Cc1ccc2c(c1)OCO2
AC50 [11]: 1.72 µM (active)

C[C@@H]1CN([C@@H](C)CO)C(=O)c2cccc(NC(=O)c3ccc(-c4nccs4)cc3)c2O[C@H]1CN(C)Cc1ccc(Oc2ccccc2)cc1
AC50 [11]: 3.03 µM (active)

COc1ccc(S(=O)(=O)Nc2ccc3c(c2)CC(=O)N([C@H](C)CO)C[C@@H](C)[C@@H](CN(C)S(=O)(=O)c2cccs2)O3)cc1
AC50 [11]: 6.01 µM (active)

C[C@@H]1CN([C@@H](C)CO)C(=O)Cc2cc(NS(=O)(=O)c3ccc(F)cc3)ccc2O[C@@H]1CN(C)Cc1ccc(Oc2ccccc2)cc1
AC50 [11]: 3.56 µM (active)

Cc1cccc(C(=O)Nc2ccc(O)cc2)c1
IC50 (Large T antigen): 10.7 µM (active)

CC(C)CC#Cc1ccc2c(c1)O[C@@H](CN(C)S(=O)(=O)c1cccc(F)c1)[C@@H](C)CN([C@H](C)CO)S2(=O)=O
AC50 [12]: 5.91 µM (active) | AC50 [13]: 26.5 µM (active) | AC50 [14]: 0.919 µM (active)

COc1ccc(NC(=O)Nc2ccc3c(c2)C(=O)N([C@@H](C)CO)C[C@H](C)[C@H](CN(C)S(=O)(=O)c2ccc(OC)cc2)O3)cc1
AC50 [12]: 4.26 µM (active) | AC50 [13]: 17.5 µM (active) | AC50 [14]: 4.38 µM (active)

CCN1C[C@@]2(COC(=O)c3ccccc3N3C(=O)CC(C)C3=O)CC[C@H](OC)[C@]34C5C[C@H]6[C@@H](OC)C[C@@](O)(C5[C@H]6OC)C(O)(C13)[C@@H](OC)C24 (some centres not stated)
AC50 (Cytochrome P450 3A4): 20 µM (inconclusive)

C/N=c1\scc(C)n1/N=C/c1cc(Br)c(O)c(OC)c1
IC50 (Large T antigen): 5.8 µM (active) | IC50 [15]: 14.4 µM (active)

CC(C)C[C@H](NC(=O)[C@H](CC(C)C)NC(=O)[C@@H](Cc1c[nH]c2ccccc12)NC(=O)[C@H](Cc1ccccc1)NC(=O)[C@@H](Cc1c[nH]c2ccccc12)NC(=O)[C@H](CCC(N)=O)NC(=O)[C@@H](CCC(N)=O)NC(=O)[C@@H]1CCCN1C(=O)[C@@H](CCCCN)NC(=O)[C@H]1CCCN1C(=O)[C@H](N)CCCN=C(N)N)C(N)=O (H-[dR][dP][dK]P[dQ]Q[dW]F[dW]LL-NH2)
GI50 (P388/ADR): > 100 µM (inactive) | GI50 (P388): > 79.8 µM (inactive) | GI50 (SN12K1): > 100 µM (inactive)

CC1NC(=O)CNC(=O)CNC(=O)C(Cc2ccc(O)cc2)NC(=O)C(C(C)C)NC(=O)C(C)NC1=O (configuration not stated) (cyclo(GGAAVY); configuration not given here)
GI50 (P388/ADR): > 100 µM (inactive) | GI50 (P388): > 100 µM (inactive) | GI50 (SN12K1): > 100 µM (inactive)

CC[C@H]1CN2CCc3cc(OC)c(OC)cc3[C@@H]2C[C@@H]1C[C@H]1NCCc2c1[nH]c1ccc(O)cc21 [TUBULOSINE]
GI50 (P388/ADR): 0.493 µM (active) | GI50 (P388): < 0.01 µM (active) | GI50 (SN12K1): < 0.01 µM (active)
